# Reference: patent US8846698B2, “Pyrrolo[2,3-d]pyrimidine tropomysin-related kinase inhibitors” (Pfizer Limited, priority 2011, dated 2014)
# pIC50: −log10 of the molar value. Structures can show the parent of a compound that is named as a salt.
# Molecular target: TRKA (Homo sapiens (Human), UniProt P04629)
# Assay: Isolated TRK enzyme assay (HTRF KinEASE-TK), TRKA
# Format: biochemical
# Conditions: read-out: Trka enzyme (IC50)
# Chain of TRKA (P04629 441-796): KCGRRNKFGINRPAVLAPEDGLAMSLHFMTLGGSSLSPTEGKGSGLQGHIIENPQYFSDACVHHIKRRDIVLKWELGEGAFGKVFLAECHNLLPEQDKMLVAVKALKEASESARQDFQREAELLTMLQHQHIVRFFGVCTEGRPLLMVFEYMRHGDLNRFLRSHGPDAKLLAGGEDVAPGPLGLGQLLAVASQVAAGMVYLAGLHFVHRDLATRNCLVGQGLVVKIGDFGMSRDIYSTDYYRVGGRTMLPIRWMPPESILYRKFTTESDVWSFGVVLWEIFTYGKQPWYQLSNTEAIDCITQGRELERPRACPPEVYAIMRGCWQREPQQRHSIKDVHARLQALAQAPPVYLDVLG
row,pIC50,SMILES
1,5.53,"CC(C)n1cc(C(=O)c2cncc(NC(=O)Cc3cccc(CN4CCC4)c3)c2)c2cncnc21 [Example 266, 2-[3-(azetidin-1-ylmethyl)phenyl]-N-{5-[(7-isopropyl-7H-pyrrolo[2,3-d]pyrimidin-5-yl)carbonyl]pyridin-3-yl}acetamide formate salt]"
2,5.67,"CC(C)n1cc(C(=O)c2cncc(NC(=O)Cc3cccc(CN4CC(F)C4)c3)c2)c2cncnc21 [Example 267, 2-{3-[(3-fluoroazetidin-1-yl)methyl]phenyl}-N-{5-[(7-isopropyl-7H-pyrrolo[2,3-d]pyrimidin-5-yl)carbonyl]pyridin-3-yl}acetamide]"
3,6.24,"CC(C)n1cc(C(=O)c2cncc(NC(=O)Cc3cccc(CN4CCOCC4)c3)c2)c2cncnc21 [Example 268, N-{5-[(7-isopropyl-7H-pyrrolo[2,3-d]pyrimidin-5-yl)carbonyl]pyridin-3-yl}-2-[3-(morpholin-4-ylmethyl)phenyl]acetamide formate salt]"
4,6.25,"O=C(Nc1cncc(C(=O)c2cn(C(CO)CO)c3ncncc23)c1)c1cccc(C(F)(F)F)c1 [Example 269, N-(5-(7-(1,3-dihydroxypropan-2-yl)-7H-pyrrolo[2,3-d]pyrimidine-5-carbonyl)pyridin-3-yl)-3-(trifluoromethyl)benzamide]"
5,6.46,"O=C(Cc1ccc(Cl)cc1)Nc1cncc(C(=O)c2cn(C(CO)CO)c3ncncc23)c1 [Example 270, 2-(4-chlorophenyl)-N-(5-(7-(1,3-dihydroxypropan-2-yl)-7H-pyrrolo[2,3-d]pyrimidine-5-carbonyl)pyridin-3-yl)acetamide]"
6,7.41,"O=C(Nc1cncc(C(=O)c2cn(C(CO)CO)c3ncncc23)c1)c1cccc(OC(F)(F)F)c1 [Example 271, N-(5-(7-(1,3-dihydroxypropan-2-yl)-7H-pyrrolo[2,3-d]pyrimidine-5-carbonyl)pyridin-3-yl)-3-(trifluoromethoxy)benzamide]"
7,6.16,"O=C(Cc1ccc2cccnc2c1)Nc1cncc(C(=O)c2cn(C(CO)CO)c3ncncc23)c1 [Example 272, N-(5-(7-(1,3-dihydroxypropan-2-yl)-7H-pyrrolo[2,3-d]pyrimidine-5-carbonyl)pyridin-3-yl)-2-(quinolin-7-yl)acetamide]"
8,6.47,"O=C(Cc1ccc(C(F)(F)F)cc1)Nc1cncc(C(=O)c2cn(C(CO)CO)c3ncncc23)c1 [Example 273, N-(5-(7-(1,3-dihydroxypropan-2-yl)-7H-pyrrolo[2,3-d]pyrimidine-5-carbonyl)pyridin-3-yl)-2-(4-(trifluoromethyl)phenyl)acetamide]"
9,7.41,"O=C(Cc1cccc(C(F)(F)F)c1)Nc1cncc(C(=O)c2cn(C(CO)CO)c3ncncc23)c1 [Example 274, N-(5-(7-(1,3-dihydroxypropan-2-yl)-7H-pyrrolo[2,3-d]pyrimidine-5-carbonyl)pyridin-3-yl)-2-(3-(trifluoromethyl)phenyl)acetamide]"
10,5.29,"Cc1ccc2ccc(CC(=O)Nc3cncc(C(=O)c4cn(C(CO)CO)c5ncncc45)c3)cc2n1 [Example 275, N-[5-({7-[2-hydroxy-1-(hydroxymethyl)ethyl]-7H-pyrrolo[2,3-d]pyrimidin-5-yl}carbonyl)pyridin-3-yl]-2-(2-methylquinolin-7-yl)acetamide]"
11,6.53,"O=C(Cc1ccc(Cl)c(Cl)c1)Nc1cncc(C(=O)c2cn(C(CO)CO)c3ncncc23)c1 [Example 276, 2-(3,4-dichlorophenyl)-N-[5-({7-[2-hydroxy-1-(hydroxymethyl)ethyl]-7H-pyrrolo[2,3-d]pyrimidin-5-yl}carbonyl)pyridin-3-yl]acetamide]"
12,6.36,"O=C(Cc1ccc(C(F)(F)F)c(F)c1)Nc1cncc(C(=O)c2cn(C(CO)CO)c3ncncc23)c1 [Example 277, 2-[3-fluoro-4-(trifluoromethyl)phenyl]-N-[5-({7-[2-hydroxy-1-(hydroxymethyl)ethyl]-7H-pyrrolo[2,3-d]pyrimidin-5-yl}carbonyl)pyridin-3-yl]acetamide]"
